One data set concerns HUVECs. Nature of the data set: Capillary-like tube formation assay (tubulogenesis). Conditions: for IC50: Homo sapiens, HUVEC, endothelial tubule network assay, anti-angiogenic activity, read-out: IC50 value; for tubule formation: 6 h. The class given is cell-based, human. In short, it runs like this: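 HUVECs seeded on Matrigel (regular or reduced growth factor) in incomplete ECM basal medium, treated with compound for 6 h; VEGF 50 ng/mL positive and sunitinib 50 nM negative controls. Calcein-AM-stained tubules imaged at 10× and tubule length expressed as % of 0.1% DMSO vehicle.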

The subject of a further data set is chick CAM. Nature of the data set: CAM (chick chorio-allantoic membrane) assay. The conditions noted are these: 2 μM. The data set is classed as in vivo. As for the experimental part:
(A) Chick CAM assays were used to observe the effect of Compound 1 on angiogenesis in vivo. 1 mm^2 window was made in 8 days old chicken eggs to expose the CAM, and a gelatin disc ([…]) treated with vehicle (0.1% DMSO), sunitinib and Compound 1 at a indicated concentrations were placed on the CAM surface. Post 4 days of incubation, the discs and associated CAM were photographed and excised out, for hemoglobin estimation by drapkin's reagent. (B) Blood vessel density was calculated and Hb. concentration was measured and representative graph was plotted for the control and treatment group and data are represented as mean±SEM with significant difference from control at *p<0.05, **p<0.01 and ***p<0.001.
The eggs were incubated horizontally for 3 days at 37° C. in a 60% humidified atmosphere, using a hybridization incubator (combi-SV 12) with one hour scheduled rotation. Post 3 days of incubation, 2-3 mL of albumin was aspirated from the acute pole of the egg to create false air sac directly over the CAM. Post fertilization (Day 8), a fine blade was used to make an approximate 0.5 cc square incision on the eggshell under sterile conditions and the eggshell window fragment was removed to access the CAM beneath. A piece of gelatin sponge embedded in Compound 1 (500 nM and 250 nM) and sunitinib (2 μM) individually were placed on the CAM of the chicken embryo and incubated for 12 days. Sterile parafilm tape was used to seal back the window and the eggs were further incubated without the rotation setting. After 12 days of incubation the CAM integration was assessed by visual inspection and photographed with a digital camera (Canon EOS); the CAM membrane along with gelatin sponge were harvested and its hemoglobin (Hb.) estimation was done by Drabkin's method according to the manufacturer's protocol (Sigma, St. Louis, Mo.). Absorbance was measured at 540 nm and hemoglobin concentration was calculated.

Another data set has as its system HCT116 colon tumor. Put plainly: HCT116 colon tumor model in nude mice. The class given is in vivo. The protocol: FIG. 12 represents Compound 1 inhibited tumor growth in vivo. Tumor sizes were recorded every alternate day by Vernier caliper measurements and calculated as [4/3*[…]*(length/2)*(width/2)]. (A) Nude mice with induced HCT116 tumor were given vehicle to the control group, sunitinib at (40 mg/kg) as a standard drug given orally and Compound 1 at (25 mg/kg) through IP route for 21 days and tumor regression was calculated for all groups. (B) Nude Mice with induced HCT116 colon tumor were given both, sunitinib and Compound 1 at (25 mg/kg) intra-muscularly for 15 days after attaining a tumor size of 100 mm^3, tumor volume reduction for treated groups were calculated and compared with control. Data are expressed as means±S.E.M. (6 mice/group) with significant difference compared with control at p<0.0001.
HCT 116 (Human colon cancer cell line) cells were trypsinised and the pellet was dissolved in ice chilled 1×PBS. HCT 116 cells suspension to a concentration of (1*10^6) cells in 50 μL PBS solution, were left on ice with occasional agitation. Mice were anaesthetized with ketamine: xylazine (100:10 mg/kg), abdominal side area was shaved and sterilized using 70% ethanol. 50 μL of cell suspension was injected slowly subcutaneously to all the mice. After 2 days, booster dose of tumor cells was injected to all mice as performed previously. The growth of the tumor was measured by using vernier caliper on day 2, 4, 6, 8, 10, 12, 14, 16 18, 20, 23 and presented in the form of tumor volume (mm^3)=[4/3*π*(long axis/2)*(short axis/2)]. After attaining a volume of 100 mm^3 of tumor size, all mice were distributed equally (n=6−8) in 3 groups of controls received vehicle (Olive oil). Sutent (25 mg/kg) as a positive control was given orally and Compound 1 (25 mg/kg) dissolved in olive oil was injected intra-muscularly for 15 days and the tumor size regression was measured on every alternate day as described previously. Post 15 days of treatment, mice from all groups were sacrificed and tumor was excised out and processed further for immunohistochemistry and molecular analysis.

In general, IC50 refers to the point on the concentration scale where inhibition reaches its midpoint. For orientation: melting point means the temperature of the solid-liquid transition.

In the case of `CCOC(=O)C1N=C1CCc1ccc(OC)c(OC)c1` (stereo not shown) [Compound 34, Ethyl 3-(3,4-dimethoxyphenethyl)-2H-azirine-2-carboxylate], the melting point was 55 to 57 °C. Moreover, in the data set with HUVECs, the IC50 came to 0.25 µM.
For the molecule `CCOC(=O)C1N=C1/C=C/c1ccc(N(C)C)cc1` (stereo not shown) [Compound 46, Ethyl (E)-3-(4-(dimethylamino)styryl)-2H-azirine-2-carboxylate], the melting point is 119 to 121 °C. Further, the half-inhibitory concentration (IC50) in the data set with HUVECs stood at 0.5 µM.
Turning to Sunitinib Maleate [reference compound], the tubule formation is recorded as 40% with HUVECs (20 nM) and 25% in the data set with HUVECs (50 nM). This molecule also gave a hemoglobin content in the data set with chick CAM of 100 µg/mL. The “growth of HCT116 cells xenografts” value in the data set with HCT116 colon tumor (25 mg/kg, 15 days) was “powerful inhibitory effect”. Moreover, the tumor volume entry with HCT116 colon tumor (40 mg/kg orally for 21 days, vs vehicle) was “progressive significant decrease in tumor volume”. Moreover, in the data set with HCT116 colon tumor (in comparison to vehicle treated control group, end of experiment), the tumor reduction amounted to 54.58%.

The values above are taken from patent US20230234920A1, “Azirine Containing Compounds as Anti-Angiogenesis Agents and a Process for the Preparation Thereof” (COUNCIL OF SCIENTIFIC & INDUSTRIAL RESEARCH, priority 2020, published 2023).
